In brackets after ≈: the same amount, converted by molar mass.
What was measured:
Pseudomonas aeruginosa [1] = assay: Antibacterial activity against Pseudomonas aeruginosa ATCC 27853 after 24 hrs by broth dilution method; assay type: functional; details: ATCC 27853, 24 h
Staphylococcus aureus [2] = assay: Antibacterial activity against Staphylococcus aureus ATCC 29213 after 24 hrs by broth dilution method; assay type: functional; details: ATCC 29213, 24 h
[3] = test system: Staphylococcus epidermidis; assay: Antibacterial activity against Staphylococcus epidermidis after 24 hrs by broth dilution method; assay type: functional
Klebsiella pneumoniae [4] = assay: Antibacterial activity against Klebsiella pneumoniae after 24 hrs by broth dilution method; assay type: functional
[5] = Aggregation property of the compound assessed as mean hydrodynamic diameter at 1 mM after 1 hr by dynamic light scattering method; assay type: physicochemical; details: 1000 µM
Klebsiella pneumoniae [6] = assay: Ratio of MBC to MIC against Klebsiella pneumoniae; assay type: functional
Erythrocyte [7] = assay: Hemolytic activity in human erythrocytes at >100 uM; assay type: ADME, cell-based
Enterobacter cloacae = assay: Antibacterial activity against multidrug-resistant and sensitive Enterobacter cloacae after 24 hrs by broth dilution method; assay type: functional
Staphylococcus aureus [8] = assay: Drug interaction with Staphylococcus aureus cellular surface assessed as decrease in zeta potential at 1 mM treated for 1 hr followed by washing and measured by dynamic light scattering method; assay type: functional
[9] = Aggregation property of the compound in DMEM culture medium at 1 mM after 1 hr by dynamic light scattering method; assay type: physicochemical; details: 1000 µM
Pseudomonas aeruginosa [10] = assay: Antibacterial activity against multidrug-sensitive Pseudomonas aeruginosa after 24 hrs by broth dilution method; assay type: functional
Staphylococcus aureus [11] = assay: Ratio of MBC to MIC against Staphylococcus aureus ATCC 29213; assay type: functional
Pseudomonas aeruginosa [12] = assay: Drug interaction with Pseudomonas aeruginosa cellular surface assessed as decrease in zeta potential at 1 mM treated for 1 hr followed by washing and measured by dynamic light scattering method; assay type: functional
Pseudomonas aeruginosa [13] = assay: Antibacterial activity against ciprofloxacin, imipenem, meronem-resistant and cefepime, piperacillin-tazobactam-sensitive Pseudomonas aeruginosa after 24 hrs by broth dilution method; assay type: functional
Staphylococcus aureus [14] = assay: Antibacterial activity against multidrug-resistant Staphylococcus aureus after 24 hrs by broth dilution method; assay type: functional
Pseudomonas aeruginosa [15] = assay: Antibacterial activity against multidrug-resistant Pseudomonas aeruginosa after 24 hrs by broth dilution method; assay type: functional
Escherichia coli = assay: Antibacterial activity against multidrug-resistant and sensitive Escherichia coli after 24 hrs by broth dilution method; assay type: functional
[16] = Cytotoxicity against human HSF cells after 72 hrs by MTT assay; assay type: cell-based
Pseudomonas aeruginosa [17] = assay: Bactericidal activity against Pseudomonas aeruginosa ATCC 27853 incubated for 24 hrs followed by replating on Mueller-Hinton agar and further incubated for 24 hrs; assay type: functional; details: ATCC 27853, 24 h
Staphylococcus aureus [18] = assay: Antibacterial activity against methicillin, cefoxytin, levfloxacin-resistant and erythromycin, clindamycin-senstitive Staphylococcus aureus after 24 hrs by broth dilution method; assay type: functional
[19] = Cytotoxicity against human HSF cells after 24 hrs by MTT assay; assay type: cell-based
Klebsiella pneumoniae [20] = assay: Antibacterial activity against multidrug-sensitive Klebsiella pneumoniae after 24 hrs by broth dilution method; assay type: functional
Staphylococcus aureus [21] = assay: Bactericidal activity against Staphylococcus aureus ATCC 29213 incubated for 24 hrs followed by replating on Mueller-Hinton agar and further incubated for 24 hrs; assay type: functional; details: ATCC 29213, 24 h
Klebsiella pneumoniae [22] = assay: Bactericidal activity against Klebsiella pneumoniae incubated for 24 hrs followed by replating on Mueller-Hinton agar and further incubated for 24 hrs; assay type: functional
Pseudomonas aeruginosa [23] = assay: Ratio of MBC to MIC against Pseudomonas aeruginosa ATCC 27853; assay type: functional
Pseudomonas aeruginosa [24] = assay: Antibacterial activity against ciprofloxacin-resistant and multidrug-sensitive Pseudomonas aeruginosa after 24 hrs by broth dilution method; assay type: functional
Staphylococcus aureus [25] = assay: Antibacterial activity against methicillin, cefoxytin-resistant and levofloxacin, erythromycin, clindamycin-senstitive Staphylococcus aureus after 24 hrs by broth dilution method; assay type: functional
Erythrocyte [26] = assay: Hemolytic activity in human erythrocytes at 1 mM; assay type: ADME, cell-based; details: 1000 µM

CCCCOP(=S)(S)OCCCC.CN1CCC[C@H]1c1cccnc1
MIC (Pseudomonas aeruginosa [1]): 3630 µM
MIC (Staphylococcus aureus [2]): 1810 µM
MIC [3]: 1810 µM
MIC (Klebsiella pneumoniae [4]): 3630 µM

C[C@@H]1[C@@H](OP(=S)(S)O[C@H]2C[C@H]3C[C@@H]([C@@H]2C)C3(C)C)C[C@H]2C[C@@H]1C2(C)C.NC(=O)c1cccnc1
MIC (Pseudomonas aeruginosa [1]): 4780 µM
MIC (Staphylococcus aureus [2]): 300 µM
MIC [3]: 300 µM
MIC (Klebsiella pneumoniae [4]): 4780 µM

CN1CCC[C@H]1c1cccnc1.Cc1ccc(C(C)C)c(OP(=S)(S)Oc2cc(C)ccc2C(C)C)c1
MIC (Pseudomonas aeruginosa [1]): 320 µM
MIC (Staphylococcus aureus [2]): 320 µM
MIC [3]: 320 µM
MIC (Klebsiella pneumoniae [4]): 2530 µM

CC(C)[C@@H]1CC[C@@H](C)C[C@H]1OP(=S)(S)O[C@@H]1C[C@H](C)CC[C@H]1C(C)C.CN1CCC[C@H]1c1cccnc1
Activity [5]: 141.7 nm
Ratio (Klebsiella pneumoniae [6]): 1
MIC (Pseudomonas aeruginosa [1]): 320 µM
Activity (Erythrocyte [7]): Toxic
MIC (Enterobacter cloacae): 360 µM
fold change (FC) (Staphylococcus aureus [8]): 1.2
Activity [9]: Active
MIC (Pseudomonas aeruginosa [10]): 360 µM
Ratio (Staphylococcus aureus [11]): 1
fold change (FC) (Pseudomonas aeruginosa [12]): 1.2
MIC (Pseudomonas aeruginosa [13]): 360 µM
MIC (Staphylococcus aureus [2]): 20 µM
MIC [3]: 20 µM
MIC (Staphylococcus aureus [14]): 23 µM
MIC (Pseudomonas aeruginosa [15]): 360 µM
MIC (Klebsiella pneumoniae [4]): 320 µM
MIC (Escherichia coli): 360 µM
IC50 [16]: 57.6 µM
MBC (Pseudomonas aeruginosa [17]): 320 µM
MIC (Staphylococcus aureus [18]): 11 µM
IC50 [19]: 81.3 µM
MIC (Klebsiella pneumoniae [20]): 360 µM
MBC (Staphylococcus aureus [21]): 20 µM
MBC (Klebsiella pneumoniae [22]): 640 µM
Ratio (Pseudomonas aeruginosa [23]): 1
MIC (Pseudomonas aeruginosa [24]): 360 µM
MIC (Staphylococcus aureus [25]): 11 µM

C[C@@H]1[C@@H](OP(=S)(S)O[C@H]2C[C@H]3C[C@@H]([C@@H]2C)C3(C)C)C[C@H]2C[C@@H]1C2(C)C.Cc1ncc(CO)c(CO)c1O
MIC (Pseudomonas aeruginosa [1]): 320 µM
MIC (Staphylococcus aureus [2]): 20 µM
MIC [3]: 20 µM
MIC (Klebsiella pneumoniae [4]): 320 µM

CC(C)[C@@H]1CC[C@@H](C)C[C@H]1OP(=S)(S)O[C@@H]1C[C@H](C)CC[C@H]1C(C)C
MIC (Pseudomonas aeruginosa [1]): 380 µM (≈ 155 µg/mL)
MIC (Staphylococcus aureus [2]): 190 µM (≈ 77.3 µg/mL)
MIC [3]: 380 µM (≈ 155 µg/mL)
Activity (Erythrocyte [26]): Toxic
MIC (Klebsiella pneumoniae [4]): 1540 µM (≈ 626 µg/mL)

CCCCOP(=S)(S)OCCCC.NC(=O)c1cccnc1
MIC (Pseudomonas aeruginosa [1]): 4130 µM
MIC (Staphylococcus aureus [2]): 4130 µM
MIC [3]: 4130 µM
MIC (Klebsiella pneumoniae [4]): 4130 µM

Cc1ccc(C(C)C)c(OP(=S)(S)Oc2cc(C)ccc2C(C)C)c1.NC(=O)c1cccnc1
MIC (Pseudomonas aeruginosa [1]): 380 µM
MIC (Staphylococcus aureus [2]): 380 µM
MIC [3]: 380 µM
MIC (Klebsiella pneumoniae [4]): 1500 µM

CN1CCC[C@H]1c1cccnc1.C[C@@H]1[C@@H](OP(=S)(S)O[C@H]2C[C@H]3C[C@@H]([C@@H]2C)C3(C)C)C[C@H]2C[C@@H]1C2(C)C
MIC (Pseudomonas aeruginosa [1]): 320 µM
MIC (Staphylococcus aureus [2]): 20 µM
MIC [3]: 20 µM
MIC (Klebsiella pneumoniae [4]): 320 µM

CC1(C)[C@H]2CC[C@](C)(C2)[C@H]1OP(=S)(S)O[C@H]1C(C)(C)[C@H]2CC[C@]1(C)C2.Cc1ncc(CO)c(CO)c1O
MIC (Pseudomonas aeruginosa [1]): 320 µM
MIC (Staphylococcus aureus [2]): 20 µM
MIC [3]: 20 µM
MIC (Klebsiella pneumoniae [4]): 320 µM

Cc1ccc(C(C)C)c(OP(=S)(S)Oc2cc(C)ccc2C(C)C)c1
MIC (Pseudomonas aeruginosa [1]): 3800 µM (≈ 1500 µg/mL)
MIC (Staphylococcus aureus [2]): 3800 µM (≈ 1500 µg/mL)
MIC [3]: 3800 µM (≈ 1500 µg/mL)
MIC (Klebsiella pneumoniae [4]): 3800 µM (≈ 1500 µg/mL)
